# System: amyloid plaques in mice brains
# Experiment: MicroPET images of transgenic mice
# Format: in vivo
# Conditions: Tg2576 mice; dynamic microPET, total acquisition time 55-77 min
# Description: All the animal experiments were performed according to the established animal protocol. The transgenic mice (Tg2576) were anaesthetised via intravenous injection with a 40 uL solution of ketamine and xylazine (4:1) before the injection of the tracer radiolabelled with ^18F: 5-[^18F]-fluoro-8-hydroxy-7-iodoquinoline. The mice were placed in supine position and scanned using microPET. A dynamic microPET study was performed using 15 planes and 15 to 16 frames (dynamic sequence: 6×30 s, 4×1 min, 2×5 min, 2×10 min, and 1-2×20 min) for a total acquisition time of 55-77 min. Images were reconstructed using the appropriate algorithms (Filter-back projection algorithm) and a cut-off frequency of 0.5. Images were reconstructed by means of a filtered iteration resulting in an image resolution of 1.8 mm and a volumetric resolution of about 6 mm^3. Transverse planes were reoriented to obtain the coronal and axial sections of the mice brains. Regional uptake is expressed in activity per gram of tissue.
smiles,measurement,value
Oc1c(I)cc([18F])c2cccnc12 [5-[^18F]-fluoro-8-hydroxy-7-iodoquinoline],detection of amyloid plaques in microPET images,adequate detection of the amyloid plaques

# — patent publication US20080063599A1, “Compounds Which Can Be Used To Diagnose And Monitor Diseases Associated With The Formation Of Amyloid Protein Fibrils” (priority 2002, published 2008)
